Assay results taken from patent US10702512B2, “Treatment of debilitating fatigue” (A. CARLSSON RESEARCH AB, priority 2015, dated 2020).

Columns and labels:
Assay type in all cases: in vivo, human
ME/CFS patients [1] = assay: FibroFatigue scale (FF) total score, phase II clinical study
Excerpt: As used herein, the term “FF-scale” or “FF” refers to the FibroFatigue scale also known as the fibromyalgia and chronic fatigue syndrome rating scale described in by Zachrisson and coworkers (Zachrisson O, et al, (2002) J Psychosom Res Jun; 52(6):501-9). The FibroFatigue scale is an observer's rating scale with 12 items measuring pain, muscular tension, fatigue, concentration difficulties, failing memory, irritability, sadness, sleep disturbances, and autonomic disturbances and irritable bowel, headache and subjective experience of infection. […] Circular coated tablets for oral use of 15 mg and matching placebos was used. The tablets were administered by research nurses at the study site. The tablets were circular coated tablets for oral use containing 15 mg OSU6162. Matching placebos were used. The start dose was 15 mg OSU6162 twice daily (before breakfast and lunch) during 1 week with dose increase up to 30 mg twice daily during the following week. Additionally, the clinical effect was evaluated using the FF-scale, The Beck/BDI scale, VAS pain scale and with neuropsychological tests. To examine the effect of treatment and concomitant use of an antidepressant, antidepressant was included as a fixed factor in the analyses. […] Outcome targets FF, MFS and BDI were measured.

ME/CFS patients [2] = assay: Beck Depression Inventory (BDI) total score, phase II clinical study; settings: 2-way ANOVA, OSU6162 vs placebo
Procedure: Circular coated tablets for oral use of 15 mg and matching placebos was used. The tablets were administered by research nurses at the study site. The tablets were circular coated tablets for oral use containing 15 mg OSU6162. Matching placebos were used. The start dose was 15 mg OSU6162 twice daily (before breakfast and lunch) during 1 week with dose increase up to 30 mg twice daily during the following week. Additionally, the clinical effect was evaluated using the FF-scale, The Beck/BDI scale, VAS pain scale and with neuropsychological tests. To examine the effect of treatment and concomitant use of an antidepressant, antidepressant was included as a fixed factor in the analyses. […] Outcome targets FF, MFS and BDI were measured.

ME/CFS patients [3] = assay: Coding test (WAIS subtest); design: key to Coding test score, min / Coding test score, max / Coding test, Difference, increased mean / Coding test score, mean / Coding test score, median: number of symbols correctly copied within 90 seconds
Procedure: Next, patients were evaluated using a neuropsychological test. 61 patients were included in a neuropsychological examination. All subjects were tested once in connection with the randomization with the BNIS neuropsychological screening test. 20-30 minutes was required for this test. With the purpose of measuring the cognitive effects of the OSU6162 treatment six more tests were distributed at a first occasion before the initiation of treatment and at a second occasion after the treatment was completed. These tests required 20 minutes each. All tests were performed by a neuropsychologist. The Coding test is a subtest from WAIS, Wechsler Adult Intelligence Scale and measures the processing speed. The performance reflects abilities such as visual-motor coordination, motor and mental speed and working memory. It requires the subject to copy, as quickly and correctly as possible, nine symbols, one by one in 93 boxes, placed below each number. The symbol connected with the numbers is available. The score is the number of symbols registered within 90 seconds.

ME/CFS patients [4] = assay: Stroop tests (Victoria version); design: Stroop 2, mean / Stroop 2, Difference / Stroop 2, median / Stroop 3, mean / Stroop 3, Difference / Stroop 3, median / Stroop 1, mean / Stroop 1, Difference / Stroop 1, median: unit not given here
Procedure: Next, patients were evaluated using a neuropsychological test. 61 patients were included in a neuropsychological examination. All subjects were tested once in connection with the randomization with the BNIS neuropsychological screening test. 20-30 minutes was required for this test. With the purpose of measuring the cognitive effects of the OSU6162 treatment six more tests were distributed at a first occasion before the initiation of treatment and at a second occasion after the treatment was completed. These tests required 20 minutes each. All tests were performed by a neuropsychologist. The Stroop test (Victoria version) is a time-based test sensitive to frontal lobe dysfunction. It measures executive functioning and is validated and used internationally. Depression and anxiety could influence the results. Speeds of processing and conceptual abilities contribute to the performance. It also reflects the ability of concentration. The test consists of three cards each containing six rows of four items. Stroop I is on the first card. In this subtest the subject must name as quickly as possible the color of 24 dots printed in blue, green, red and yellow. Each color is used six times and the four colors are arranged in pseudo-random order within the array, each color appears once in a row. Stroop 2 is on the second card. In this subtest the dots are replaced by common words printed in lower-case letters. The subject is required to name the colors in which the stimuli are presented and to disregard their verbal content. Stroop 3 is on the third card. In this subtest the colored stimuli are the color names “blue, green, red and yellow” printed in lower case letters so that the print color never corresponds to the color name.

ME/CFS patients [5] = assay: neuropsychological tests of cognitive functioning, overall; settings: all neuropsychological tests employed; no significant difference vs placebo

SMILES: CCCN1CCC[C@@H](c2cccc(S(C)(=O)=O)c2)C1.Cl [OSU6162, (3S)-3-[3-(methylsulfonyl)-phenyl]-1-propylpiperidine hydrochloride]
- FF main effect of treatment (ME/CFS patients [1]; 2-way ANOVA, OSU6162 vs placebo): None
- FF interaction between treatment with OSU6162 and antidepressant over time (ME/CFS patients [1]; 3-way ANOVA week*treatm*antidepr, F3,180=6.785, p=0.0002): statistically significant 3-way interactions
- FF difference between OSU6162 treated and placebo treated patients (ME/CFS patients [1]; patients not on antidepressant therapy, post hoc comparison): No difference
- FF change from week 0, difference OSU6162 vs placebo (95% confidence interval) (ME/CFS patients [1]; patients on stable antidepressant therapy, after one week of treatment, F1,56=6.320, p=0.015, Bonferroni): −7.23 (−13.1 to −1.48)
- BDI main effect of treatment (ME/CFS patients [2]): None
- Coding test score, max (ME/CFS patients [3]; after treatment): 93
- Coding test score, mean (ME/CFS patients [3]; after treatment): 56.29
- Coding test score, median (ME/CFS patients [3]; after treatment): 56
- Coding test score, min (ME/CFS patients [3]; after treatment): 37
- Coding test, Difference, increased mean (ME/CFS patients [3]; after vs before treatment): 5
- Coding test difference between OSU6162 and placebo groups (ME/CFS patients [3]; before and after treatment): No significant differences
- Coding test score, max (ME/CFS patients [3]; before treatment): 80
- Coding test score, mean (ME/CFS patients [3]; before treatment): 51.42
- Coding test score, median (ME/CFS patients [3]; before treatment): 51
- Coding test score, min (ME/CFS patients [3]; before treatment): 31
- Stroop 1, max (ME/CFS patients [4]; after treatment): 20 s
- Stroop 1, mean (ME/CFS patients [4]; after treatment): 12.77
- Stroop 1, median (ME/CFS patients [4]; after treatment): 12
- Stroop 1, min (ME/CFS patients [4]; after treatment): 8
- Stroop 2, max (ME/CFS patients [4]; after treatment): 29 s
- Stroop 2, mean (ME/CFS patients [4]; after treatment): 16.9
- Stroop 2, median (ME/CFS patients [4]; after treatment): 16
- Stroop 2, min (ME/CFS patients [4]; after treatment): 9
- Stroop 3, max (ME/CFS patients [4]; after treatment): 62 s
- Stroop 3, mean (ME/CFS patients [4]; after treatment): 23.48
- Stroop 3, median (ME/CFS patients [4]; after treatment): 23
- Stroop 3, min (ME/CFS patients [4]; after treatment): 12
- Stroop tests difference between OSU6162 and placebo groups (ME/CFS patients [4]; before and after treatment): No significant differences
- Stroop 1, max (ME/CFS patients [4]; before treatment): 22 s
- Stroop 1, mean (ME/CFS patients [4]; before treatment): 13.97
- Stroop 1, median (ME/CFS patients [4]; before treatment): 14
- Stroop 1, min (ME/CFS patients [4]; before treatment): 9
- Stroop 2, max (ME/CFS patients [4]; before treatment): 39 s
- Stroop 2, mean (ME/CFS patients [4]; before treatment): 19.5
- Stroop 2, median (ME/CFS patients [4]; before treatment): 19
- Stroop 2, min (ME/CFS patients [4]; before treatment): 10
- Stroop 3, max (ME/CFS patients [4]; before treatment): 51 s
- Stroop 3, mean (ME/CFS patients [4]; before treatment): 26.8
- Stroop 3, median (ME/CFS patients [4]; before treatment): 24
- Stroop 3, min (ME/CFS patients [4]; before treatment): 14
- Stroop 1, Difference (ME/CFS patients [4]; before vs after treatment): 1.2
- Stroop 2, Difference (ME/CFS patients [4]; before vs after treatment): 3.2
- Stroop 3, Difference (ME/CFS patients [4]; before vs after treatment): 4.9
- effect of treatment on cognitive abilities (ME/CFS patients [5]): does not affect the cognitive abilities
